We go through eight compounds from publication PMC6259618 (Molecules, 2011).

The test system of data set [1] is human prostate carcinoma PC-3 cells. In kind it is binding. As to conditions: for Binding inhibition by unlabeled DUP-1: ^125I-labeled ligand on PC-3 cells, competitor unlabeled DUP-1 at 10^-4 M. As for the experimental part:
The human prostate carcinoma cell line PC-3 (American Type Culture Collection, Manassas, VA, USA) was cultivated at 37 °C in a 5% CO2 incubator in RPMI 1640 with Glutamax containing 10% FCS (Invitrogen, Karlsruhe, Germany) and 25 mmol/L HEPES.
200,000 cells were seeded in 6-well plates and cultivated for 24 hours. The medium was replaced by 1 mL fresh medium (without FCS). ^125I-labeled or ^111In-labeled peptide was added to the cell culture (1–2 × 10^6 cpm per well) and incubated for various time periods. Thereafter, the cells were washed thrice with 1 mL phosphate buffer saline (PBS) and subsequently lysed with 0.3 mol/L NaOH (0.5 mL). Radioactivity was measured with a γ-counter and calculated as percentage applied dose per 10^6 cells. For competition experiments co-incubation was performed with the unlabeled peptide at a defined concentration. If BSA or dry milk powder was used as blocking agents, it was added to a final concentration of 1% in medium without FCS.

Another data set can be described thus: in vivo. The note with it: male, BALB/c nu/nu, mouse, iv, total radioactivity; for tissue to tissue ratio at 0.25 h / tissue to tissue ratio at 1 h: Tumor-to-organ ratio. The method, then:
(§1) Male 6-week-old BALB/c nu/nu mice were obtained from Charles River WIGA (Sulzfeld, Germany) and housed in VentiRacks. For inoculation of the tumors, a Matrigel matrix/cell (5 × 10^6 cells) suspension was injected subcutaneously into the flank of the animals. Tumors were grown up to a size of ~1.0 cm^3. ^111In-labeled or ^131I-labeled peptide was injected via the tail vein into the animals, carrying PC-3 prostate tumors. At defined time points post injection, the mice were sacrificed. Tumor, blood and selected tissues (heart, lung, spleen, liver, kidney, muscle, intestinum and brain) were removed, drained of blood, weighed, and the radioactivity was measured with a γ-counter (LB 951G, Berthold Technologies). The percentage injected dose per gram of tissue (%ID/g) was calculated. All animal experiments were carried out in conformity with the German law for protection of animals and are in compliance with European laws.

In data set [2] the test system is human prostate carcinoma PC-3 cells. The note with it: for Incubation time to maximal radioligand binding / binding saturation: ^111In- or ^125I-labeled peptide, medium without FCS, gamma-counter; for Binding as % of the native molecule (DUP-1) capacity: ^125I-labeled.
Description: Direct radiolabeling with ^125I was performed on the tyrosine moiety using the chloramine-T method. A 10^−3 M aqueous solution of the respective peptide (5–25 µL, 5–25 nmol) was added to 0.25 M phosphate buffer (25 µL, pH 7.5). A radioactivity amount of 1–10 MBq ^125I- or ^131I- was added to this mixture and vortexed for 30 sec. The labeling reaction was quenched by adding 10 µL of a saturated aqueous methionine solution. The radiolabeled peptide was purified by HPLC on a Lichrosorb RP-select B 5 µm, 250 × 4 mm column using a linear solvent gradient system.
Radiolabeling was performed by complexation with ^111In-chloride. One microliter of a 10^−3 M solution of DOTA-Lys-DUP-1 in 50% dimethyl sulfoxide in water was mixed with sodium acetate buffer (25 µL, pH 5), and 10 MBq ^111InCl3 (PerkinElmer, Rodgau) was added. The solution was heated at 95 °C for 25 min. Quality control was performed by HPLC showing a radiochemical purity >95%.
The test system is the same in data set [3]. Details: method as in PMID 15671538. As to conditions: ^125I-DUP-1, 'has been shown to be'; earlier work; cited from earlier work.
Data set [4] relates to PC-3 tumors. The note with it: cited from earlier work; for Tumor binding: iodinated native ligand. As for the experimental part: A linear peptide with affinity for prostate carcinoma was identified in our group using phage display techniques. The peptide, […], was isolated on prostate-specific membrane antigen-negative cells and evaluated both in vitro and in vivo. Chemical synthesized […] was tested for binding affinity, specificity, kinetics and internalization. In vivo tumor accumulation and organ distribution was evaluated in a nude mouse model, carrying subcutaneously human prostate carcinoma cells. […] A possible explanation for the rapid clearance is the higher polarity of the DOTA conjugate.

The conditions of data set [5]: native DUP-1, not among the peptides tested here; earlier work; cited from earlier work.
The next data set is described as follows: human serum. As to conditions: 37 °C, up to 6 hours.
Data set [6] deals with PC-3 tumors. The data set is described as follows: in vivo. As to conditions: mouse. The method, then:
as §1

Where [7] appears, read: PC-3 cells, after 10 min incubation.
Where [8] appears, read: PC-3 cells, after 60 min incubation.
The mark [9] stands for this setting: ^125I-labeled fragments, PC-3 cells, after binding saturation.

Like-named read-outs stand apart in the source and are kept apart here. Where a SMILES comes first, the peptide text is derived from it. Where no end group is shown, it is not given here. The star is where a group is joined. DOTA = O=C(O)CN1CCN(CC(=O)O)CCN(CC(=O)*)CCN(CC(=O)O)CC1

For `C[C@H](NC(=O)[C@H](CCCNC(=N)N)NC(=O)[C@H](CC(N)=O)NC(=O)[C@@H]1CCCN1C(=O)[C@H](CCCNC(=N)N)NC(=O)[C@@H](N)Cc1ccccc1)C(=O)N[C@@H](CCC(N)=O)C(=O)N[C@@H](CC(=O)O)C(=O)N[C@@H](Cc1ccc(O)cc1)C(=O)N[C@@H](CC(N)=O)C(=O)N[C@H](C(=O)N[C@@H](CC(N)=O)C(=O)N[C@@H](CCCCNC(=O)CN1CCN(CC(=O)O)CCN(CC(=O)O)CCN(CC(=O)O)CC1)C(N)=O)[C@@H](C)O` (111In complex, metal not drawn) [DOTA-Lys-DUP-1] (H-FRPNRAQDYNTNK(DOTA)-NH2), the IC50 in data set [1] (24 h) worked out at 3.3 µM. Also, the tissue uptake at 0.25 h in “in vivo” turned out to be 2.1 %ID/g. The tissue uptake at 1 h in the data set “in vivo” was determined as 0.14 %ID/g. For the same compound, the tissue to tissue ratio at 0.25 h is 0.79 ± 0.198 in the data set “in vivo” (Blood); 18.6 ± 4.05 in the data set “in vivo” (Brain); 1.99 ± 0.459 in “in vivo” (Heart); 2.46 ± 0.391 in “in vivo” (Intestine); 0.124 ± 0.028 in “in vivo” (Kidney); 2.35 ± 0.196 in “in vivo” (Liver). The tissue to tissue ratio at 0.25 h was 0.823 ± 0.167 in “in vivo” (Lung), 3.39 ± 0.833 in the data set “in vivo” (Muscle), 3.02 ± 0.793 in “in vivo” (Spleen) and 1 in “in vivo” (Tumor). In addition, the tissue to tissue ratio at 1 h in “in vivo” (Blood) worked out at 3.45 ± 0.261; in “in vivo” (Brain), 14.8 ± 4.73; in the data set “in vivo” (Heart), 7.79 ± 0.578; in “in vivo” (Intestine), 4.79 ± 2.13; in the data set “in vivo” (Kidney) it was 0.063 ± 0.012; in “in vivo” (Liver) it was 3.81 ± 0.07. In addition, the tissue to tissue ratio at 1 h in “in vivo” (Lung) was 2.9 ± 0.142; in “in vivo” (Muscle), 8.05 ± 6.85; in the data set “in vivo” (Spleen), 5.71 ± 1.09; in “in vivo” (Tumor), 1.

For the compound C-FRPNRAQDYNTN-C (disulfide) [cDUPc], the “Binding inhibition by unlabeled DUP-1” value in data set [1] is reported as “up to 90%”. In addition, the “Incubation time to maximal radioligand binding / binding saturation” value in data set [2] (PC-3 cells) was determined as 60 min. Moreover, the figures for the “Binding as % of the native molecule (DUP-1) capacity” value in data set [2] (setting [7]) and in data set [2] (setting [8]) were “about 7%” and “about 19%”, respectively.

Take FRPNRAQDYNTN [DUP-1]: the “Incubation time to maximal radioligand binding / binding saturation” value in data set [2] (PC-3 cells) stood at 5 min. Further, the “Binding, percentage applied dose per 10^6 cells” value in data set [2] (PC-3 cells, radiolabeled peptide, maximal binding) is “about 12 % applied dose per 10^6 cells”. The IC50 in data set [3] is 0.177 µM. The Tumor binding result is on record as “about 7%” with PC-3 tumors [4] (15 min circulation in mice) and “about 4%” with PC-3 tumors [4] (45 min circulation in mice). Moreover, the Kidney radioactivity result in the data set with PC-3 tumors [4] (iodinated peptide, 15 min) is “about 8 % ID/g”. Also, the “Increase of radioligand-binding in the prostate tumor compared to normal prostate tissue” value in the data set on PC-3 tumors [4] (organ distribution, nude mouse model) is listed as “up to 300%”. Further, the Serum half life in data set [5] is 2 min.

On to FRPNRAY [DUP-1-6-Y], for which the “Binding as % of the leader peptide DUP-1” value in data set [2] is “about 82%”.

Turning to “H-FRPNRAQDYNTNK(DOTA)-NH2 (SMILES C[C@H](NC(=O)[C@H](CCCNC(=N)N)NC(=O)[C@H](CC(N)=O)NC(=O)[C@@H]1CCCN1C(=O)[C@H](CCCNC(=N)N)NC(=O)[C@@H](N)Cc1ccccc1)C(=O)N[C@@H](CCC(N)=O)C(=O)N[C@@H](CC(=O)O)C(=O)N[C@@H](Cc1ccc(O)cc1)C(=O)N[C@@H](CC(N)=O)C(=O)N[C@H](C(=O)N[C@@H](CC(N)=O)C(=O)N[C@@H](CCCCNC(=O)CN1CCN(CC(=O)O)CCN(CC(=O)O)CCN(CC(=O)O)CC1)C(N)=O)[C@@H](C)O)”, the cleaved bond entry in the data set “human serum” is reported as “phenylalanine1-R2, first_seen, 5 min”.

As to NRAQDY [DUP-4-9], in data set [1] (^125I-labeled DUP-4-9 on PC-3 cells, unlabeled peptide as competitor, read-out: IC50), the IC50 is 3.5 µM. For the same compound, in data set [1], the “Binding inhibition by unlabeled DUP-1” value was “about 99%”. Moreover, in the data set on PC-3 tumors [6], the Activity in kidneys worked out at 15.48 % ID/g and the Radioactivity in blood entry was “about 5.5 % ID/g”. Also, the “Incubation time to maximal radioligand binding / binding saturation” value in data set [2] (PC-3 cells) is on record as 30 min. Further, the “Binding as % of the leader peptide DUP-1” value in data set [2] (setting [9]) was “about 70%”.

Turning to QDYNTN [DUP-7-12], in data set [2] (setting [9]), the “Binding as % of the leader peptide DUP-1” value is “reduced binding capacity to the background level”.

In the case of fRPNRAQDYNTN [dPhe-DUP-1], in data set [1], the “Binding inhibition by unlabeled DUP-1” value is “up to 94%”. For the same compound, the “Incubation time to maximal radioligand binding / binding saturation” value in data set [2] (PC-3 cells) amounted to 60 min. In data set [2] (PC-3 cells, summary in discussion, incubation time not printed at place), the “In vitro binding capacity relative to DUP-1” value was “about 25%”. In addition, the “Binding as % of the native molecule (DUP-1) capacity” value in data set [2] (setting [7]) was “about 8.5%”; in data set [2] (setting [8]), “about 25%”.
